Common to all, as to format: biochemical
The target of one test is hVEGFR2 (Homo sapiens, UniProt P35968). In words: VEGFR2 HTRF assay. The settings on record: Inhibition of VEGFR2. As to the method: The compounds of the present invention elicit important and measurable pharmacological responses. Different compounds from this class are particularly effective at inhibiting VEGFR2 enzymes, as described by the VEGFR2 HTRF assay below, at concentrations, which range from 0.0001 to 1 μM.
The assays were performed in 96-well black plates. 10 nM hVEGFR2 was used to phosphorylate 0.36 μM peptide (Biotin-Ahx-EEEEYFELVAKKKK) in the presence of 75 μM ATP, 5 mM MgCl2, 0.3 mM DTT, 0.1 mg/ml BSA, and 0.1 M HEPES (pH 7.5). 10 μl 0.5 M EDTA was added to reactions as negative controls. The 50 μl kinase reaction with or without inhibitors in 5% DMSO was carried out at room temperature for 45 minutes, then stopped by 40 μl of 125 mM EDTA. 2.4 μg/ml Streptavidin-APC and 0.15 μg/ml Eu-α-pY, in the presence of 0.1 mg/ml BSA, 0.1 M HEPES (pH7.5), were added to a final volume of 140 μl. The plate was incubated for 10 min at room temperature (22° C.) and read on the Victor with the time resolved fluorescence mode by exciting at 340 nm and reading the emission at 665 nm.
• Peptide from Synpep (Dublin, Calif.) • ATP, MgCl2, DTT, BSA, HEPES, EDTA, DMSO from Sigma Streptavidin-APC from Molecular Probes (Eugene, Oreg.) • Eu-α-pY from EG&G Wallac (Gaithersburg, Md.)
A general note: In TR-FRET formats the signal depends on donor and acceptor labels being close together.

Another test has as its target T1, CDK2 (Homo sapiens, UniProt P24941).
T1 construct: made in house
Put plainly: CDK2 substrate phosphorylation assay (biotinylated peptide, 32P-ATP). The settings on record: Inhibition of CDK2. The procedure: (§1) The compounds of the present invention have valuable pharmacologic properties. Different compounds from this class are particularly effective at inhibiting CDK2 and/or CDK4 enzymes at concentrations, which range from 0.0001 to 1 μM and additionally show specificity relative to other kinases. Substrate phosphorylation assays were carried out as follows:
Cyclin dependent protein kinase 2 assays utilized the peptide Biotin-aminohexyl-ARRPMSPKKKA-NH2 as phosphoryl group acceptor. CDK2 was expressed utilizing a baculovirus expression system and was partially purified to comprise 20-80% of total protein, with no detectable competing reactions present. Typically, assays were performed by incubating enzyme (0.2-10 nM), with and without inhibitor, peptide substrate (1-10 nM), [g-^32P]ATP (1-20 nM), and 10-20 mM Mg^2+ for periods of time generally within the range 10-120 minutes. Reactions were terminated with 0.2-2 volumes of either 20% acetic acid or 50-100 mM EDTA buffered to pH 7 (substrate consumption <20%). The buffer employed in enzyme assay was 100 mM HEPES pH 7.5 containing 0.1 mg/mL BSA and 5% DMSO. Inhibitors were diluted in 100% DMSO prior to addition into the assay. Detection of peptide phosphorylation was accomplished by scintillation counting following either collection of peptide onto phosphocellulose filters (for reactions stopped with acetic acid), collection of peptide in wells of 96 well plates coated with Streptavidin (Pierce) (reactions were stopped with EDTA), or addition of Avidin coated Scintillant impregnated beads (Scintillation Proximity Assays from Amersham, reactions were stopped with EDTA). Counts detected by any of these methodologies minus the appropriate background (assays with additional 40 mM EDTA or lacking peptide substrate) were assumed to be proportional to the reaction initial rates, and IC50s were determined by a least squares fit to the equation CPM=Vmax*(1−([I]/(K+[I])))+nsb, or −pIC50s were determined by a fit to the equation CPM=nsb+(Vmax−nsb)/(1+(x/10^x−pIC50)), where nsb are the background counts. Filters are washed four times with 75 mM phosphoric acid. Radioactivity was determined by liquid scintillation counting.

Another test has as its target T2, CDK4 (Homo sapiens, UniProt P11802).
T2 construct: made in house
In words: CDK4 substrate phosphorylation assay (Rb protein, 33P-ATP). The settings on record: Inhibition of CDK4. As to the method:
as §1
Cyclin D1 and cyclin-dependent kinase 4 were expressed utilizing a baculovirus expression system. The catalytic activity of CDK4 protein was assayed by measuring the phosphorylation of Rb protein. A truncated Rb protein (residues 773-928 of the native retinoblastoma protein, fused to glutathione S-transferase to facilitate purification) was used as the phosphoryl acceptor. The assay conditions were 100 mM HEPES (N-[2-hydroxyethyl]piperzine-N′-[2-ethanesulfonic acid]), pH 7.5, 0.5 μM GST-Rb protein, 1 μCi/mL [^33P]-ATP (1 nM-20 μM), 5-20 mM MgCl2, 2.5 mM EDTA, 1 mM dithiotheitol, 0.2 mg/mL bovine serum albumin, 2% (v/v) dimethyl sulfoxide (DMSO), CDK4 enzyme (5-50 nM) in a final volume of 50 μL. Reactions were incubated for time periods of 10-60 min at 30° C. and terminated by the addition of 50 μL quench (1 mM ATP/100 mM EDTA, pH 7.0). Detection of protein phosphorylation was accomplished by scintillation counting following collection of protein in 96 well plates coated with Glutathione or trapping of protein onto phosphocellulose filters. Counts detected by these methodologies minus the appropriate background were assumed to be proportional to the reaction initial rates. IC50 values were determined by measuring enzyme activity in the presence of different inhibitor concentrations (0.1 nM to 50 μM). IC50s were determined by a least squares fit to the equation CPM=Vmax*(1−([I]/(K+[I])))+nsb, or pIC50s were determined by a fit to the equation CPM=nsb+(Vmax−nsb)/(1+(x/10^x−pIC50)), where nsb are the background counts.

SMILES strings stand for the structures. Some results are limits rather than exact numbers.

IC50 data for 19 compounds are collected here from patent US20070142437A1, “CHEMICAL COMPOUNDS” (priority 2005, published 2007).

A word on the IC50: it is the midpoint of a concentration-inhibition curve.

Sequence of hVEGFR2 (P35968 20-1356): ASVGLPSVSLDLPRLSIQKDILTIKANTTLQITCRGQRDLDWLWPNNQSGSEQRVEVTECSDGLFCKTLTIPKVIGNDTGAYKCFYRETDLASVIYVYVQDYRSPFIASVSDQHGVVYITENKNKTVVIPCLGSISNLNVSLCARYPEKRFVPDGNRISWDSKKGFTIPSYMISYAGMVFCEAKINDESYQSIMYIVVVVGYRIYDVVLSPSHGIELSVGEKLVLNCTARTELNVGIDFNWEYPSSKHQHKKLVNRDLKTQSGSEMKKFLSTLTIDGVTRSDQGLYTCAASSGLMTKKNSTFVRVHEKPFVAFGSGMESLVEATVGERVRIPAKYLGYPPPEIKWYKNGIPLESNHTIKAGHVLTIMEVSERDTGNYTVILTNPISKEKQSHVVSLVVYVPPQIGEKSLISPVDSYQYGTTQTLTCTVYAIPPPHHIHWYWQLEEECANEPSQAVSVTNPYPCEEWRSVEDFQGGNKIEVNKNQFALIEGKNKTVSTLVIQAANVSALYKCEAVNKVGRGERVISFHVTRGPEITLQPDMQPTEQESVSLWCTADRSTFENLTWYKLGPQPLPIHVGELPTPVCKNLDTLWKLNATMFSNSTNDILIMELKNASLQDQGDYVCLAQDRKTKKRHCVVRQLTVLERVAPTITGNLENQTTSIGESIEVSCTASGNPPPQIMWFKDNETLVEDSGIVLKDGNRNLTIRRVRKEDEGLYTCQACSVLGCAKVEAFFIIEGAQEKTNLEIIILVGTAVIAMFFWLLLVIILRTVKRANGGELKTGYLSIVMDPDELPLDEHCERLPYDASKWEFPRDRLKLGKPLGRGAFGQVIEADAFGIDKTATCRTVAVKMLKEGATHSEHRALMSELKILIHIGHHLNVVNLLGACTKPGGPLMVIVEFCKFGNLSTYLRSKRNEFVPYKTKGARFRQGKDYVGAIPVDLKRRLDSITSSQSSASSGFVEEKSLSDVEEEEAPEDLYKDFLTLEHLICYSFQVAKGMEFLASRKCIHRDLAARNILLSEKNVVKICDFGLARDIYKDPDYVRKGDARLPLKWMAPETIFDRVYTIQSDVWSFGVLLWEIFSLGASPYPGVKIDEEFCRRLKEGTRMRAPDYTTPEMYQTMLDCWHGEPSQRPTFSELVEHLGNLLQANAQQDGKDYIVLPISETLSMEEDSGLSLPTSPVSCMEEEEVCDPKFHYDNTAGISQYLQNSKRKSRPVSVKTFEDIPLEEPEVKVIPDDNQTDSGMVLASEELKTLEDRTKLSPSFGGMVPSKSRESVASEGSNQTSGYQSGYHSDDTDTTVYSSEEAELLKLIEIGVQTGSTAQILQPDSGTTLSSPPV
T2 sequence (P11802 whole entry, species assumed): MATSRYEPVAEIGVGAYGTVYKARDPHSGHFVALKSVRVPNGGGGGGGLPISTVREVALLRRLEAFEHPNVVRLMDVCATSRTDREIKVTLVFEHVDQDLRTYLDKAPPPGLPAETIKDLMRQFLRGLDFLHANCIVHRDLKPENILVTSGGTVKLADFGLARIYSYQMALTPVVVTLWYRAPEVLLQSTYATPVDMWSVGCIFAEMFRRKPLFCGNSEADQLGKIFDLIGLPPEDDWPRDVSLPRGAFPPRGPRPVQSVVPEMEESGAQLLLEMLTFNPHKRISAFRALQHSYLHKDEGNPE
T2 sequence (P24385 whole entry partner, species assumed): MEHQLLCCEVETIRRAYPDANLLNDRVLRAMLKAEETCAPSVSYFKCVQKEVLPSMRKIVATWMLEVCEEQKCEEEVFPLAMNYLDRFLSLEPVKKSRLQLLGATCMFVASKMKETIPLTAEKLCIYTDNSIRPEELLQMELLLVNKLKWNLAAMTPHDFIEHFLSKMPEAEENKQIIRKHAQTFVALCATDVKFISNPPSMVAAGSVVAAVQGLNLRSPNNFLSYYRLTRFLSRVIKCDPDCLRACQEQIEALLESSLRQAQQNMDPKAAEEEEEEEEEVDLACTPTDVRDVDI

Turning to `COc1cccc(-c2cnc(Nc3ccc(N4CCN(C)CC4)c(F)c3)o2)c1` [Example 20, N-[3-fluoro-4-(4-methylpiperazin-1-yl)phenyl]-5-(3-methoxyphenyl)-1,3-oxazol-2-amine], the IC50 is less than 1000 nM on hVEGFR2, less than 1000 nM against CDK2 and less than 100 nM at CDK4.

For the compound `COc1cccc(-c2cnc(Nc3ccc(N4CCN(C)CC4)c(C(F)(F)F)c3)o2)c1` [Example 21, 5-(3-Methoxyphenyl)-N-[4-(4-methylpiperazin-1-yl)-3-(trifluoromethyl)phenyl]-1,3-oxazol-2-amine], the results for the concentration for half-maximal inhibition (IC50) against hVEGFR2, against CDK2 and against CDK4 were less than 1000 nM, less than 1000 nM and less than 100 nM, respectively.

`COc1cccc(-c2cnc(Nc3ccc(N4CCN(C)CC4)c(C)c3)o2)c1` [Example 22, 5-(3-Methoxyphenyl)-N-[3-methyl-4-(4-methylpiperazin-1-yl)phenyl]-1,3-oxazol-2-amine]: the IC50 against hVEGFR2 is less than 100 nM; against CDK2 it was less than 1000 nM; on CDK4, less than 100 nM.

Turning to `COc1cccc(-c2cnc(Nc3ccc(N4CC(C)NC(C)C4)cc3)o2)c1` (stereo not drawn) [Example 23, N-[4-(3,5-dimethylpiperazin-1-yl)phenyl]-5-(3-methoxyphenyl)-1,3-oxazol-2-amine], the values for the IC50 on hVEGFR2, at CDK2 and against CDK4 were less than 1000 nM, less than 100 nM and less than 1000 nM, respectively.

As for `COc1cccc(-c2cnc(Nc3ccc(N4CCN(C)CC4)cc3C)o2)c1` [Example 24, 5-(3-methoxyphenyl)-N-[2-methyl-4-(4-methylpiperazin-1-yl)phenyl]-1,3-oxazol-2-amine], the half-maximal inhibitory concentration (IC50) at hVEGFR2 is less than 1000 nM; against CDK2, less than 10000 nM; on CDK4, less than 1000 nM.

Take `CN1CCN(c2ccc(Nc3ncc(-c4cccc(OC5CCCC5)c4)o3)cc2C(F)(F)F)CC1` [Example 25, 5-[3-(Cyclopentyloxy)phenyl]-N-[4-(4-methylpiperazin-1-yl)-3-(trifluoromethyl)phenyl]-1,3-oxazol-2-amine]: the results for the IC50 against hVEGFR2, on CDK2 and at CDK4 were less than 1000 nM, less than 100 nM and less than 100 nM, respectively.

On to `CN1CCN(c2ccc(Nc3ncc(-c4cccc(OC5CCCC5)c4)o3)cc2Cl)CC1` [Example 26, N-[3-Chloro-4-(4-methylpiperazin-1-yl)phenyl]-5-[3-(cyclopentyloxy)phenyl]-1,3-oxazol-2-amine], for which the IC50 against hVEGFR2 was less than 1000 nM; against CDK2 it was less than 100 nM; against CDK4, less than 100 nM.

Consider `Cc1cc(Nc2ncc(-c3cccc(OC4CCCC4)c3)o2)ccc1N1CCN(C)CC1` [Example 27, 5-[3-(cyclopentyloxy)phenyl]-N-[3-methyl-4(4-methylpiperazin-1-yl)phenyl]-1,3-oxazol-2-amine], for which the IC50 at hVEGFR2, at CDK2 and on CDK4 was less than 100 nM each time.

As to `CN1CCN(c2ccc(Nc3ncc(-c4cccc(OC5CCCC5)c4)o3)cc2F)CC1` [Example 28, 5-[3-(Cyclopentyloxy)phenyl]-N-[3-fluoro-4-(4-methylpiperazin-1-yl)phenyl]-1,3-oxazol-2-amine], the IC50 against hVEGFR2, against CDK2 and against CDK4 was less than 100 nM each time.

Regarding `c1cc(OC2CCCC2)cc(-c2cnc(Nc3ccc(N4CCSCC4)cc3)o2)c1` [Example 30, 5-[3-(Cyclopentyloxy)phenyl]-N-(4-thiomorpholin-4-ylphenyl)-1,3-oxazol-2-amine], the IC50 at hVEGFR2 is less than 1000 nM; at CDK2 it was less than 10000 nM; at CDK4, less than 1000 nM.

Regarding `COc1cccc(-c2cnc(Nc3ccc(N4CCN(C)CC4)nc3)o2)c1` [Example 31, N-[5-(3-methoxyphenyl)-1,3-oxazol-2-yl]-6-(4-methylpiperazin-1-yl)pyridin-3-amine], the IC50 on hVEGFR2, at CDK2 and against CDK4 was less than 1000 nM each time.

With `CN1CCN(c2ccc(Nc3ncc(-c4cccc(OC5CCCC5)c4)o3)cn2)CC1` [Example 34, N-{5-[3-(cyclopentyloxy)phenyl]-1,3-oxazol-2-yl}-6-(4-methylpiperazin-1-yl)pyridin-3-amine], the IC50 at hVEGFR2 is less than 1000 nM; on CDK2, less than 100 nM; at CDK4, less than 100 nM.

With `CCN(CC)c1ccc(Nc2ncc(-c3cccc(OC)c3)o2)cn1` [Example 35, N^2,N^2-diethyl-N^5-[5-(3-methoxyphenyl)-1,3-oxazol-2-yl]pyridine-2,5-diamine], the IC50 at hVEGFR2, on CDK2 and against CDK4 was less than 10000 nM throughout.

Turning to `CCN(CC)c1ccc(Nc2ncc(-c3cccc(OC4CCCC4)c3)o2)cn1` [Example 36, N^5-{5-[3-(cyclopentyloxy)phenyl]-1,3-oxazol-2-yl}-N^2,N^2-diethylpyridine-2,5-diamine], the half-inhibitory concentration (IC50) is less than 10000 nM at hVEGFR2, less than 1000 nM against CDK2 and less than 1000 nM at CDK4.

As for `Cc1cc(Nc2ncc(-c3cccc(OC4CCCC4)c3)o2)cnc1N1CCN(C)CC1` [Example 37, N-{5-[3-(cyclopentyloxy)phenyl]-1,3-oxazol-2-yl}-5-methyl-6-(4-methylpiperazin-1-yl)pyridin-3-amine], the IC50 at hVEGFR2 was less than 1000 nM; at CDK2 it was less than 1000 nM; against CDK4, less than 100 nM.

`COc1cccc(-c2cnc(Nc3ccc(CN4CCN(C)CC4)cc3)o2)c1` [Example 38, 5-(3-methoxyphenyl)-N-{4-[(4-methylpiperazin-1-yl)methyl]phenyl}-1,3-oxazol-2-amine]: the IC50 against hVEGFR2, against CDK2 and against CDK4 was less than 1000 nM each time.

`CN1CCN(Cc2ccc(Nc3ncc(-c4ccccc4)o3)cc2)CC1` [Example 39, N-{4-[(4-methylpiperazin-1-yl)methyl]phenyl}-5-phenyl-1,3-oxazol-2-amine]: the IC50 against hVEGFR2, at CDK2 and against CDK4 was less than 1000 nM throughout.

Regarding `COc1cccc(-c2cnc(Nc3ccc(CN(C)C)cc3)o2)c1` [Example 40, N-{4-[(dimethylamino)methyl]phenyl}-5-(3-methoxyphenyl)-1,3-oxazol-2-amine], the IC50 at hVEGFR2 is less than 1000 nM; against CDK2, less than 1000 nM; on CDK4 it was less than 100 nM.

`COc1cccc(-c2cnc(Nc3ccc(CCN(C)C)cc3)o2)c1` [Example 42]: the IC50 was less than 1000 nM against hVEGFR2, less than 1000 nM on CDK2 and less than 100 nM against CDK4.
